Six compounds from PubChem BioAssay (NCI) can be followed below.

Each structure is given as a SMILES string. Several values for one entry are separate records, joined by “and”; a condition that tells them apart may be missing. Equal values may be shown once.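 These data come from cells grown in 96-well plates and exposed to compound for 48 hours at five concentrations. GI50 = concentration required for 50% inhibition of growth. At the TGI there is no net growth.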

Among the test systems are SK-MEL-28 melanoma; HOP-92 NSCLC; UACC-257 melanoma; SF-539 CNS; BT-549 breast; SNB-19 CNS; RPMI-8226 leukemia; KM12 colon; OVCAR-8 ovarian; MDA-MB-231 breast.
Common to all, as to assay: DTP human tumour cell line panel, 48 h

Take `O=S(=O)(NCCCNc1cc(-c2cn(-c3ccccc3)nc2-c2cccc(O)c2)ccn1)c1ccc(F)cc1`: the GI50 in the assay on SK-MEL-28 melanoma was 2.58 µM; in the assay with HOP-92 NSCLC, 2.66 µM; with UACC-257 melanoma, 2.92 µM; in the assay with SF-539 CNS, 2.99 µM; with BT-549 breast it was 2.28 µM; in the assay with SNB-19 CNS it was 4.67 µM. The GI50 in the assay with RPMI-8226 leukemia was 2.23 µM; in the assay on KM12 colon, 3.24 µM; with OVCAR-8 ovarian it was 4.15 µM; in the assay with MDA-MB-231 breast, 2.48 µM. In addition, the TGI in the assay on SK-MEL-28 melanoma came to 8.27 µM; in the assay on HOP-92 NSCLC, 7.62 µM; with UACC-257 melanoma, 7.26 µM; in the assay on SF-539 CNS, 15.8 µM; in the assay with BT-549 breast, 7.78 µM; in the assay with SNB-19 CNS it was 52.3 µM. In addition, the TGI came out at 7.63 µM in the assay with RPMI-8226 leukemia, 11.7 µM in the assay with KM12 colon, 18.3 µM in the assay with OVCAR-8 ovarian and 7.19 µM in the assay on MDA-MB-231 breast.
For `N#Cc1cc2c(cc1Cl)Sc1nnc(Nc3cccc4ccccc34)n1S2(=O)=O`, the GI50 in the assay with SK-MEL-28 melanoma was 5.05 µM; with HOP-92 NSCLC, 14.7 µM; in the assay with UACC-257 melanoma, 14.8 µM; in the assay on SF-539 CNS it was 2.4 µM; in the assay with BT-549 breast it was 14.6 µM; with SNB-19 CNS, 1.89 µM. Further, the GI50 in the assay on RPMI-8226 leukemia was 2.66 µM; in the assay on KM12 colon, 2.99 µM; in the assay with OVCAR-8 ovarian it was 30.2 µM; in the assay with MDA-MB-231 breast, 2.49 µM. Besides, the TGI stood at 16.3 µM in the assay on SK-MEL-28 melanoma; 30.1 µM with HOP-92 NSCLC; 30.1 µM in the assay with UACC-257 melanoma; 5.2 µM in the assay with SF-539 CNS; 28.9 µM with BT-549 breast; 4.29 µM in the assay on SNB-19 CNS. Further, the TGI with RPMI-8226 leukemia is 7.77 µM; with KM12 colon it was 10.1 µM; with OVCAR-8 ovarian, over 100 µM; in the assay with MDA-MB-231 breast, 6.96 µM.
For `COC1=C(OC)C(=O)C(CCCCCCCCCCO)=C(C)C1=O`, the GI50 was 13.5 µM in the assay with SK-MEL-28 melanoma; 2.53 µM in the assay with HOP-92 NSCLC; 1.84 µM in the assay on UACC-257 melanoma; 7.49 µM in the assay with SF-539 CNS; 12.7 µM in the assay with BT-549 breast; 14.8 µM in the assay on SNB-19 CNS. Besides, the GI50 is 4 µM in the assay with RPMI-8226 leukemia, 15.1 µM in the assay on KM12 colon, 3.76 µM in the assay on OVCAR-8 ovarian and 5.24 µM in the assay on MDA-MB-231 breast. Besides, the TGI in the assay with SK-MEL-28 melanoma was determined as 26.5 µM; in the assay on HOP-92 NSCLC it was 9.84 µM; in the assay on UACC-257 melanoma, 4.48 µM; in the assay with SF-539 CNS, 20.3 µM; in the assay with BT-549 breast, 25.9 µM; in the assay on SNB-19 CNS, 31.3 µM. In addition, the TGI stood at 29.5 µM in the assay on RPMI-8226 leukemia, 58.1 µM in the assay with KM12 colon, 16.2 µM in the assay with OVCAR-8 ovarian and 22 µM in the assay with MDA-MB-231 breast.
For `CC1(C)[C@H](O)[C@H](F)C[C@@]2(C)Oc3ccc(C(=O)Nc4ccc5c(c4)NC(=O)C54CCN(CCCCC#N)CC4)cc3C[C@H]12`, the GI50 in the assay with SK-MEL-28 melanoma was 1.25 µM and 1.2 µM; with HOP-92 NSCLC it was 0.00986 µM; with UACC-257 melanoma, 1.57 µM; in the assay on SF-539 CNS, 0.00698 µM; with BT-549 breast it was 0.0186 µM; in the assay with SNB-19 CNS, 0.412 µM and 1.07 µM. Also, the concentration for 50% growth inhibition (GI50) with RPMI-8226 leukemia was 0.00262 µM; in the assay on KM12 colon, 0.463 µM and 0.707 µM; with OVCAR-8 ovarian, 5.36 µM; with MDA-MB-231 breast, 0.842 µM and 0.537 µM. For the same compound, the TGI with SK-MEL-28 melanoma was 3.61 µM and 3.43 µM; in the assay on HOP-92 NSCLC it was 3.28 µM and 8.09 µM; in the assay on UACC-257 melanoma it was 5.02 µM; in the assay with SF-539 CNS it was 4.77 µM and 2.5 µM; in the assay on BT-549 breast, 6.31 µM and 8.37 µM; with SNB-19 CNS, 6.81 µM. For the same compound, the TGI in the assay with KM12 colon was 9.79 µM and 11.9 µM; in the assay with OVCAR-8 ovarian it was 45.1 µM; with MDA-MB-231 breast, 8.56 µM.
`Nc1nc(-c2ccc(Cl)cc2)nc2c1sc(=S)n2-c1ccccc1`: the GI50 in the assay with SK-MEL-28 melanoma is 5.22 µM; with HOP-92 NSCLC, 2.37 µM; with UACC-257 melanoma, 6.58 µM; in the assay with SF-539 CNS, 1.62 µM; in the assay on BT-549 breast, 6.5 µM; in the assay on SNB-19 CNS, 3.55 µM. The GI50 was 5.54 µM with RPMI-8226 leukemia, 5.4 µM with KM12 colon, 5.16 µM with OVCAR-8 ovarian and 3.44 µM with MDA-MB-231 breast. Besides, the concentration for total growth inhibition (TGI) in the assay with SK-MEL-28 melanoma was over 100 µM; in the assay with HOP-92 NSCLC, 6.25 µM; in the assay with UACC-257 melanoma it was 32 µM; with SF-539 CNS, 3.29 µM; in the assay on BT-549 breast it was over 100 µM; in the assay on SNB-19 CNS, 10.1 µM. The TGI is over 100 µM with RPMI-8226 leukemia, over 100 µM in the assay on KM12 colon, over 100 µM with OVCAR-8 ovarian and 10.6 µM in the assay on MDA-MB-231 breast.
`COc1cc(-c2ncn(/C=C\c3nnco3)n2)cc(C(F)(F)F)c1`: the GI50 in the assay on SK-MEL-28 melanoma was 0.125 µM; in the assay on HOP-92 NSCLC, 0.952 µM; in the assay with UACC-257 melanoma, 0.368 µM; in the assay on SF-539 CNS, 0.0295 µM; in the assay on BT-549 breast it was 0.125 µM; in the assay with SNB-19 CNS, 0.175 µM. For the same compound, the GI50 with RPMI-8226 leukemia is 0.102 µM; with KM12 colon, 0.705 µM; with OVCAR-8 ovarian, 0.0813 µM; with MDA-MB-231 breast, 0.208 µM. Moreover, the TGI was over 34.6 µM in the assay with SK-MEL-28 melanoma; 46.5 µM in the assay with HOP-92 NSCLC; over 52.5 µM with UACC-257 melanoma; 0.581 µM in the assay with SF-539 CNS; 14.3 µM with BT-549 breast; over 100 µM with SNB-19 CNS. The TGI in the assay with RPMI-8226 leukemia was over 89.1 µM; with KM12 colon it was over 39.3 µM; with OVCAR-8 ovarian it was over 47 µM; with MDA-MB-231 breast, over 71.2 µM.
